The source of these data is patent US12616701B2, “Solid state forms of Resmetirom” (ASSIA CHEMICAL INDUSTRIES LTD., priority 2020, dated 2026).

Counter-ions that a name gives are not always drawn.

The nature of data set [1]: Hygroscopicity of the crystalline form. The class given is physicochemical. Conditions: crystalline solid form.
Data set [2] is described as follows: Polymorphic stability at relative humidity, room temperature. The class given is physicochemical. Particulars: for at least 7 days.

As for `CC(C)c1cc(Oc2c(Cl)cc(-n3nc(C#N)c(=O)[nH]c3=O)cc2Cl)n[nH]c1=O` [Form 20, 2-[3,5-dichloro-4-[(6-oxo-5-propan-2-yl-1H-pyridazin-3-yl)oxy]phenyl]-3,5-dioxo-1,2,4-triazine-6-carbonitrile], the hygroscopicity entry in data set [1] is “non-hygroscopic”. Further, the “relative humidity up to which the form is polymorphically stable” value (“relative humidity up” for short) in data set [2] was “up to 80 % relative humidity”.

For the compound `CC(C)c1cc(Oc2c(Cl)cc(-n3nc(C#N)c(=O)[nH]c3=O)cc2Cl)n[nH]c1=O` [Form R2-A, Resmetirom piperazine salt], the hygroscopicity result in data set [1] was “non-hygroscopic”. Further, the “relative humidity up” value in data set [2] is reported as “up to 100 % relative humidity”.

Regarding `CC(C)c1cc(Oc2c(Cl)cc(-n3nc(C#N)c(=O)[nH]c3=O)cc2Cl)n[nH]c1=O` [Form R3-A, Resmetirom:L-proline], the hygroscopicity result in data set [1] is listed as “non-hygroscopic”. Besides, the “relative humidity up” value in data set [2] is listed as “up to 80 % relative humidity”.

In the case of `CC(C)c1cc(Oc2c(Cl)cc(-n3nc(C#N)c(=O)[nH]c3=O)cc2Cl)n[nH]c1=O` [Form RC1-A, Resmetirom:nicotinamide], in data set [1], the hygroscopicity result is on record as “non-hygroscopic”. The “relative humidity up” value in data set [2] is on record as “up to 80 % relative humidity”.

Take `CC(C)c1cc(Oc2c(Cl)cc(-n3nc(C#N)c(=O)[nH]c3=O)cc2Cl)n[nH]c1=O` [Form RC2-A, Resmetirom:caffeine]: the hygroscopicity entry in data set [1] is on record as “non-hygroscopic”. Also, in data set [2], the “relative humidity up” value is given as “up to 100 % relative humidity”.

As for `CC(C)c1cc(Oc2c(Cl)cc(-n3nc(C#N)c(=O)[nH]c3=O)cc2Cl)n[nH]c1=O` [Form RC2-B, Resmetirom:caffeine], in data set [1], the hygroscopicity entry is “non-hygroscopic”. In addition, the “relative humidity up” value in data set [2] is “up to 80 % relative humidity”.
